Legend:
beagle dogs = experiment: Dog toxicity of Compound A given as iv bolus for five consecutive days, with or without oral folic acid or leucovorin; type: in vivo
human tumor GC3TK = experiment: Mouse antitumor: human tumor GC3TK in the subrenal capsule of nude mice, Compound A ip bolus for five days; type: in vivo

Cc1nc2ccc3ccc(CNc4ccc5c(c4)CN([C@@H](CCC(=O)O)C(=O)O)C5=O)cc3c2c(=O)[nH]1 [Compound A, (S)-2-(5-(((1,2-Dihydro-3-methyl-1-oxobenzo[f]quinazolin-9-yl)methyl)amino)-1-oxo-2-isoindolinyl)glutaric acid]
lethality (beagle dogs; 8 mg/kg iv bolus for five consecutive days, alone): lethal | deaths (beagle dogs; 10 mg/kg iv 30 minutes after oral leucovorin (Wellcovorin) 10 mg/kg): no deaths occurred | deaths (beagle dogs; 10 mg/kg iv 30 minutes after oral leucovorin (Wellcovorin) 50 mg/kg): no deaths occurred | deaths (beagle dogs; 10 mg/kg iv 30 minutes after oral leucovorin (Wellcovorin) 100 mg/kg): no deaths occurred | deaths (beagle dogs; 10 mg/kg iv 30 minutes after oral leucovorin (Wellcovorin) 200 mg/kg): no deaths occurred | lethality (beagle dogs; 10 mg/kg iv, five consecutive days, given alone): lethal | lethality (beagle dogs; 20 mg/kg iv bolus 30 minutes after oral folic acid 50 mg/kg): not lethal | Mouse antiumor (% I) (human tumor GC3TK; 3.2 mg/kg Compound A, folic acid 0 mg/kg, experiment with 50 mg/kg folic acid): 100 % I | Mouse antitumor (% I) (human tumor GC3TK; 3.2 mg/kg Compound A, folic acid 0 mg/kg, experiment with 500 mg/kg folic acid): 89 % I | Mouse antiumor (% I) (human tumor GC3TK; 3.2 mg/kg Compound A, folic acid 50 mg/kg): 100 % I | Mouse antitumor (% I) (human tumor GC3TK; 3.2 mg/kg Compound A, folic acid 500 mg/kg): 78 % I | Mouse antitumor (% I) (human tumor GC3TK; 3.2 mg/kg Compound A, leucovorin 0 mg/kg): 100 % I | Mouse antitumor (% I) (human tumor GC3TK; 3.2 mg/kg Compound A, leucovorin 200 mg/kg): 100 % I | inhibition of tumor growth (human tumor GC3TK; 3.2 mg/kg ip bolus for five days, no protectant): complete inhibition of tumor growth | Mouse antitumor (% I) (human tumor GC3TK; 10 mg/kg Compound A, folic acid 0 mg/kg, experiment with 50 mg/kg folic acid): >100 % I | Mouse antitumor (% I) (human tumor GC3TK; 10 mg/kg Compound A, folic acid 0 mg/kg, experiment with 500 mg/kg folic acid): >100 % I | Mouse antitumor (% I) (human tumor GC3TK; 10 mg/kg Compound A, folic acid 50 mg/kg): >100 % I | Mouse antitumor (% I) (human tumor GC3TK; 10 mg/kg Compound A, folic acid 500 mg/kg): >100 % I | Mouse antitumor (% I) (human tumor GC3TK; 10 mg/kg Compound A, leucovorin 0 mg/kg): >100 % I | Mouse antitumor (% I) (human tumor GC3TK; 10 mg/kg Compound A, leucovorin 200 mg/kg): >100 % I | inhibition of tumor growth (human tumor GC3TK; 10 mg/kg ip bolus for five days, no protectant): complete inhibition of tumor growth | inhibition of tumor growth (human tumor GC3TK; 50 mg/kg folic acid orally 30 minutes prior to the ip bolus dose of Compound A (3.2 or 10 mg/kg)): complete inhibition of tumor growth | inhibition of tumor growth (human tumor GC3TK; 200 mg/kg leucovorin orally 30 minutes prior to the ip bolus dose of Compound A (3.2 or 10 mg/kg)): complete inhibition of tumor growth | inhibition (human tumor GC3TK; another experiment, 3.2 mg/kg, absence of protectant): 89% | growth inhibition (human tumor GC3TK; another experiment, 10 mg/kg, absence of protectant): complete growth inhibition | tumor growth inhibition versus absence of folic acid (human tumor GC3TK; another experiment, 500 mg/kg folic acid orally 30 min prior to Compound A): not significantly different
